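Dose response: 5 concentrations. Exposure: 48 h. Format: 96-well plates. Endpoint: linear interpolation; highest concentration if not reached. Abbreviation: GI50, concentration required for 50% inhibition of growth.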 The source made the active and inactive calls. No stated cut-off is given here; in the data, active = GI50 up to about 1.1 µM and inactive = higher.
Legend:
Experiment in all cases: NCI-60 cell line screen, 48 h
Malme-3M = test system: Malme-3M
OVCAR-3 = test system: OVCAR-3
UACC-257 = test system: UACC-257
CAKI-1 = test system: CAKI-1
NCI-H522 = test system: NCI-H522
SF-295 = test system: SF-295
HT-29 = test system: HT-29
PC-3 = test system: PC-3
SK-MEL-5 = test system: SK-MEL-5
IGROV-1 = test system: IGROV-1
SF-539 = test system: SF-539
SNB-19 = test system: SNB-19
RXF 631 = test system: RXF 631
A549 = test system: A549
MOLT-4 = test system: MOLT-4
RPMI-8226 = test system: RPMI-8226
M14 = test system: M14
OVCAR-4 = test system: OVCAR-4
OVCAR-5 = test system: OVCAR-5
COLO 205 = test system: COLO 205
DU-145 = test system: DU-145
HOP-18 = test system: HOP-18
LOX IMVI = test system: LOX IMVI
HOP-62 = test system: HOP-62
DLD-1 = test system: DLD-1
SR = test system: SR
EKVX = test system: EKVX
NCI-H226 = test system: NCI-H226
HOP-92 = test system: HOP-92
SK-MEL-2 = test system: SK-MEL-2
786-0 = test system: 786-0
MDA-N = test system: MDA-N
SNB-78 = test system: SNB-78
U-251 = test system: U-251
SK-OV-3 = test system: SK-OV-3
KM-20L2 = test system: KM-20L2
T47D = test system: T47D
BT-549 = test system: BT-549
MCF7 = test system: MCF7
HL-60 = test system: HL-60
KM12 = test system: KM12
MDA-MB-231 = test system: MDA-MB-231
A498 = test system: A498
M19-MEL = test system: M19-MEL
LXFL 529 = test system: LXFL 529
K562 = test system: K562
DMS-273 = test system: DMS-273
HCT-15 = test system: HCT-15
RXF 393 = test system: RXF 393
NCI-H23 = test system: NCI-H23
MDA-MB-435 = test system: MDA-MB-435
NCI-H460 = test system: NCI-H460
SN12C = test system: SN12C
SK-MEL-28 = test system: SK-MEL-28
SW-620 = test system: SW-620
TK-10 = test system: TK-10
Hs-578T = test system: Hs-578T
HCT-116 = test system: HCT-116
SF-268 = test system: SF-268
OVCAR-8 = test system: OVCAR-8
SNB-75 = test system: SNB-75
CCRF-CEM = test system: CCRF-CEM
UACC-62 = test system: UACC-62
ACHN = test system: ACHN
HCC 2998 = test system: HCC 2998
DMS-114 = test system: DMS-114
UO-31 = test system: UO-31
XF498 = test system: XF498

`N=c1nc(N)c2cc3c(N)nc(=N)c3cc12` was tested, and the GI50 (Malme-3M) was 2.95 µM (inactive), the GI50 (OVCAR-3) was 27.9 µM (inactive) and the GI50 (UACC-257) was 3.37 µM (inactive). The GI50 (CAKI-1) was 8.38 µM (inactive), the GI50 (NCI-H522) was 16 µM (inactive) and the GI50 (SF-295) was 14.9 µM (inactive). For the same compound, the GI50 (HT-29) was 82.2 µM (inactive), the GI50 (PC-3) was 36.1 µM (inactive) and the GI50 (SK-MEL-5) was 60.8 µM (inactive). For the same compound, the GI50 (IGROV-1) was > 100 µM (inactive), the GI50 (SF-539) was 4.85 µM (inactive) and the GI50 (SNB-19) was 58.6 µM (inactive). For the same compound, the GI50 (RXF 631) was 14.5 µM (inactive), the GI50 (A549) was > 100 µM (inactive) and the GI50 (MOLT-4) was 4.07 µM (inactive). The GI50 (RPMI-8226) was 3.13 µM (inactive), the GI50 (M14) was 2.47 µM (inactive) and the GI50 (OVCAR-4) was 15.4 µM (inactive). The GI50 (OVCAR-5) was 19.1 µM (inactive), the GI50 (COLO 205) was > 91.8 µM (inactive) and the GI50 (DU-145) was 30.5 µM (inactive). The GI50 (HOP-18) was 8.97 µM (inactive), the GI50 (LOX IMVI) was 2.49 µM (inactive) and the GI50 (HOP-62) was 12.4 µM (inactive). The GI50 (DLD-1) was > 73.5 µM (inactive), the GI50 (SR) was 3.83 µM (inactive) and the GI50 (EKVX) was 25.2 µM (inactive). The GI50 (NCI-H226) was 13 µM (inactive), the GI50 (HOP-92) was 3.94 µM (inactive) and the GI50 (SK-MEL-2) was 3.31 µM (inactive). The GI50 (786-0) was 4.86 µM (inactive), the GI50 (MDA-N) was 2.05 µM (inactive) and the GI50 (SNB-78) was 9.35 µM (inactive). The GI50 (U-251) was 11.5 µM (inactive), the GI50 (SK-OV-3) was 28.6 µM (inactive) and the GI50 (KM-20L2) was > 100 µM (inactive). For the same compound, the GI50 (T47D) was 8.51 µM (inactive), the GI50 (BT-549) was 3.99 µM (inactive) and the GI50 (MCF7) was 33.5 µM (inactive). The GI50 (HL-60) was 2.02 µM (inactive), the GI50 (KM12) was 72.9 µM (inactive) and the GI50 (MDA-MB-231) was 2.69 µM (inactive). The GI50 (A498) was > 9.27 µM (inactive), the GI50 (M19-MEL) was 1.87 µM (inactive) and the GI50 (LXFL 529) was 38.1 µM (inactive). The GI50 (K562) was 2.2 µM (inactive), the GI50 (DMS-273) was 30.7 µM (inactive) and the GI50 (HCT-15) was 71.6 µM. For the same compound, the GI50 (RXF 393) was 6.32 µM (inactive), the GI50 (NCI-H23) was 35.3 µM (inactive) and the GI50 (MDA-MB-435) was 3.19 µM (inactive). The GI50 (NCI-H460) was 22.5 µM (inactive), the GI50 (SN12C) was 5.07 µM (inactive) and the GI50 (SK-MEL-28) was 2.45 µM (inactive). For the same compound, the GI50 (SW-620) was 5.27 µM (inactive), the GI50 (TK-10) was 15.3 µM (inactive) and the GI50 (Hs-578T) was 36.1 µM (inactive). The GI50 (HCT-116) was 4.55 µM (inactive), the GI50 (SF-268) was 2.62 µM (inactive) and the GI50 (OVCAR-8) was 4.35 µM (inactive). For the same compound, the GI50 (SNB-75) was 8.09 µM (inactive), the GI50 (CCRF-CEM) was 2.28 µM (inactive) and the GI50 (UACC-62) was 3.72 µM (inactive). For the same compound, the GI50 (ACHN) was 63.5 µM (inactive), the GI50 (HCC 2998) was 31.3 µM (inactive) and the GI50 (DMS-114) was 5.74 µM (inactive). For the same compound, the GI50 (UO-31) was 7.5 µM (inactive).

For `CCN(CC)C1CC(n2cc(C)c(=O)[nH]c2=O)OC1CO` (stereo unspecified), the GI50 (Malme-3M) was > 100 µM (inactive), the GI50 (CAKI-1) was > 100 µM (inactive) and the GI50 (NCI-H522) was > 100 µM (inactive). The GI50 (IGROV-1) was > 100 µM (inactive), the GI50 (SF-539) was > 100 µM (inactive) and the GI50 (RXF 631) was > 100 µM (inactive). For the same compound, the GI50 (MOLT-4) was > 100 µM (inactive), the GI50 (RPMI-8226) was > 100 µM (inactive) and the GI50 (M14) was > 100 µM (inactive). The GI50 (OVCAR-4) was > 100 µM (inactive), the GI50 (COLO 205) was > 100 µM (inactive) and the GI50 (HOP-62) was > 100 µM (inactive). For the same compound, the GI50 (DLD-1) was > 100 µM (inactive), the GI50 (SR) was > 100 µM (inactive) and the GI50 (NCI-H226) was > 100 µM (inactive). For the same compound, the GI50 (HOP-92) was > 100 µM (inactive), the GI50 (SK-MEL-2) was > 100 µM (inactive) and the GI50 (786-0) was > 100 µM (inactive). The GI50 (SNB-78) was > 100 µM (inactive), the GI50 (SK-OV-3) was > 100 µM (inactive) and the GI50 (HL-60) was > 100 µM (inactive). For the same compound, the GI50 (A498) was > 100 µM (inactive), the GI50 (M19-MEL) was > 100 µM (inactive) and the GI50 (LXFL 529) was > 100 µM (inactive). For the same compound, the GI50 (K562) was > 100 µM (inactive), the GI50 (DMS-273) was > 100 µM (inactive) and the GI50 (NCI-H23) was > 100 µM (inactive). The GI50 (NCI-H460) was > 100 µM (inactive), the GI50 (SN12C) was > 100 µM (inactive) and the GI50 (SK-MEL-28) was > 100 µM (inactive). For the same compound, the GI50 (XF498) was > 100 µM (inactive), the GI50 (HCT-116) was > 100 µM (inactive) and the GI50 (SF-268) was > 100 µM (inactive). The GI50 (SNB-75) was > 100 µM (inactive), the GI50 (CCRF-CEM) was > 100 µM (inactive) and the GI50 (UACC-62) was > 100 µM (inactive). The GI50 (HCC 2998) was > 100 µM (inactive), the GI50 (DMS-114) was > 100 µM (inactive) and the GI50 (UO-31) was > 100 µM (inactive).

Reference: ChEMBL document CHEMBL1201862, “PubChem BioAssay data set” (2004)
